Reference: paper PMC5989765, “The safety, tolerability, and pharmacokinetic profile of GSK2838232, a novel 2nd generation HIV maturation inhibitor, as assessed in healthy subjects” (Pharmacology Research & Perspectives, 2018)
“Also recorded” adds a separate entry of the source. Like-named read-outs stand apart in the source and are kept apart here.

Legend:
[1] = Study 204953 Part 1B: relative bioavailability capsule versus API PiB and food effect, with RTV; type: in vivo
Experimental: (§1) This study was planned as an extension of the previously conducted single‐ and multiple‐dose escalation studies described above. It was a double‐blind, placebo‐controlled, single and repeat dose escalation study of micronized API GSK2838232 with RTV conducted in three parts (Part 1A, Part 1B, and Part 2).
In Part 1A, a cohort of subjects was given single doses of 50, 100, and 250 mg of GSK2838232 with RTV, following 2 days of RTV predosing, in a sequential dose‐escalation design. Part 1B studied the relative bioavailability of GSK2838232 given as 100 mg (2 × 50 mg) capsules versus the reference API (PiB) in a two‐period crossover design with RTV, following 2 days of RTV predosing. In Period 3, subjects took the capsule formulation and RTV with a moderate fat meal (30% of calories from fat).
(§2) Blood samples were taken via an indwelling cannula or by direct venipuncture, collected into a di‐potassium ethylenediaminetetraacetic acid (K2 EDTA) tube, and placed on wet ice. Samples were centrifuged at approximately 1500g for 10 minutes at approximately 4°C. Exactly 500 μL of the resulting plasma was transferred into labeled 1.4 mL Matrix TrakMate Tubes containing exactly 500 μL of 50 mmol/L citrate buffer, pH 4.0, and mixed well. When 500 μL of plasma was not able to be transferred, the ratio of plasma to citrate buffer was kept at 1:1. Buffered plasma samples were kept on ice and frozen at −70°C within 1 hour of collection. Plasma samples were analyzed for GSK2838232 using a validated analytical method based on protein precipitation, followed by high performance liquid chromatography with tandem mass spectrometry (HPLC/MS/MS) analysis.
(§3) Extracts were analyzed using HPLC (Shimadzu, Nexera, 30 series) and tandem mass spectrometry detection (HPLC‐MS/MS). The mass spectrometer used was an API‐5500 using IonSpray interface (500 V) in positive mode monitoring. The mass transitions were 809.5 to 255.1 and 816.5 to 262.1 for GSK2838232 and [2H7] GSK2838232 (the isotopically labeled internal standard), respectively. The chromatographic conditions utilized a Waters Acquity UPLC BEH C18 column (50 × 2.1 mm, 1.7 μm) with mobile phases consisting of 1 mmol/L ammonium formate:formic acid (100:0.005) (mobile phase A) and acetonitrile:formic acid (100:0.1) (mobile phase B) at a flow rate of 0.6 mL/min, with pump B at 63% held for 2 minutes. The assay was validated to have precision (%RSD) of 0.7%‐6.5% (within‐run) and 1.0%‐5.9% RSD (between‐run) and with accuracy (%bias) of 0.0%‐1.6%. […] The lower limit of quantification (LLQ) was 0.5 ng/mL, using a 50 μL aliquot of K2EDTA acidified plasma. The higher limit of quantification (HLQ) was 500 ng/mL.
(§4) The PK parameters were calculated by standard noncompartmental analysis based on actual sampling times using WinNonlin Version 6.3 or higher. Estimation of AUC used the linear up/log down trapezoidal rule.
For the assessment of relative bioavailability of the capsule formulation compared to the PiB suspension and of the food effect using the capsule formulation (all with RTV), PK parameters were separately analyzed for each treatment using a mixed effects model with fixed effect terms for period and treatment following loge transformation. Subject was treated as a random effect in the model. Point estimates and their associated 90% CIs were constructed for the differences in PK parameter values between the test and reference treatments. The point estimates and their associated 90% CIs were then back‐transformed to provide point estimates and 90% CIs for the ratios of PK parameters from test and reference treatments on the original scale.

[2] = Study 204953 Part 2: repeat dosing for 11 days with RTV QD or 200 mg BID unboosted; type: in vivo, human; conditions: for CL/F / Cmax / AUC / half-life: geometric mean (95% CI); for Cmax / Tmax / AUC / concentration at 24 h / half-life / concentration at 12 h: human, plasma, oral; for AUC: read-out: AUC(0‐τ); for half-life: read-out: t½ (converted); for dose proportionality (C max and AUC): repeat QD dosing 20‐200 mg with RTV for 11 days, PiB or capsules
Experimental: as §1
In Part 2, GSK2838232 was given to separate cohorts as once‐daily 20, 50, 100, and 200 mg doses with RTV for 11 days, with GSK2838232 and RTV dosing starting at the same time (i.e., no RTV predosing). GSK2838232 was administered as PiB for the 20 and 50 mg cohorts and as the capsule formulation for the 100 and 200 mg cohorts. Another separate cohort of subjects received GSK2838232 alone (i.e., unboosted) at a dose of 200 mg twice‐daily (BID; given every 12 hours) for 11 days using the capsule formulation to assess trough concentrations without RTV co‐administration.
as §2, §3, §4

[3] = 100 mg Fed (moderate, 30% fat meal) versus 100 mg fasted, API capsule formulation with RTV, Study 204953
[4] = Capsule : API PiB, single 100 mg + ritonavir, Study 204953
[5] = Study Day 11, 20 mg QD + RTV (PiB), Study 204953
[6] = Study Day 11, 50 mg QD + RTV (PiB), Study 204953
[7] = Study Day 11, 100 mg QD + RTV (capsules), Study 204953
[8] = Study Day 11, 200 mg QD + RTV (capsules), Study 204953
[9] = 200 mg, Study Day 11, 200 mg bid without RTV (capsules), Study 204953
[10] = relative to first dose following predosing ritonavir to steady‐state

With `CC(C)C1=C2[C@H]3CC[C@@H]4[C@@]5(C)CC[C@H](OC(=O)CC(C)(C)C(=O)O)C(C)(C)[C@@H]5CC[C@@]4(C)[C@]3(C)CC[C@@]2([C@@H](O)CN(CCN(C)C)Cc2ccc(Cl)cc2)CC1=O` [GSK2838232] the “Geometric least square mean ratio [90% CI], AUC(0‐∞)” value [1, 3] was 1.58 (1.412,1.777), the “Geometric least square mean ratio [90% CI], C max” value [1, 3] was 1.62 (1.376,1.911) and the “Ratio of Geometric Least Square Means, AUC(0‐∞)” value [1, 4] was 1.43. The “Ratio of Geometric Least Square Means, C max” value [1, 4] was 1.58, the “bioavailability after meal relative to the fasted state” value ([1]; capsule formulation with RTV, moderate fat (30%) meal, Study 204953) was “approximately 1.6 fold” and the “C24, capsule relative to PiB suspension” value ([1]; single 100 mg with RTV) was 1.4 fold. For the same molecule, the “C max, capsule relative to PiB suspension” value ([1]; single 100 mg with RTV) was 1.6 fold, the “t½ geometric LS mean ratio, capsule versus PiB” value ([1]; single 100 mg with RTV, data not shown) was “no difference” and the “steady‐state C24 as multiple of PA‐IC90” value ([2]; 200 mg BID unboosted, PA‐IC90 5 ng/mL) was ~ 8 fold. The “steady‐state C24 of 200 mg BID without RTV compared with 50 mg QD with RTV” value ([2]; Study 204953) was “similar”, the CL/F [2, 5] was 44.5 (29.5, 67.3) L/h and the CL/F [2, 6] was 46.0 (35.7, 59.2) L/h. The CL/F [2, 7] was 41.5 (30.7, 56.1) L/h, the CL/F [2, 8] was 49.8 (30.3, 81.9) L/h and the CL/F ([2]; Study Day 11, 200 mg bid without RTV (capsules), Study 204953) was 269 (182, 399) L/h. It also gave a Cmax ([2]; 20 mg, Study day 1, 20 mg QD + RTV (PiB), Study 204953) of 11.1 ng/mL, a Tmax ([2]; 20 mg, Study day 1, 20 mg QD + RTV (PiB), Study 204953, median (range)) of 3.74 h and an AUC ([2]; 20 mg, Study day 1, 20 mg QD + RTV (PiB), τ = 24 hours, Study 204953) of 175 ng·h/mL. For the same molecule, the concentration at 24 h ([2]; 20 mg, Study day 1, 20 mg QD + RTV (PiB), τ = 24 hours, Study 204953, median (range), read-out: Cτ) was 6.09 ng/mL, the Cmax ([2]; 50 mg, Study day 1, 50 mg QD + RTV (PiB), Study 204953) was 17.1 ng/mL and the Tmax ([2]; 50 mg, Study day 1, 50 mg QD + RTV (PiB), Study 204953, median (range)) was 2.5 h. For the same molecule, the AUC ([2]; 50 mg, Study day 1, 50 mg QD + RTV (PiB), τ = 24 hours, Study 204953) was 265 ng·h/mL, the concentration at 24 h ([2]; 50 mg, Study day 1, 50 mg QD + RTV (PiB), τ = 24 hours, Study 204953, median (range), read-out: Cτ) was 11.1 ng/mL and the Cmax ([2]; 100 mg, Study day 1, 100 mg QD + RTV (capsules), Study 204953) was 46.2 ng/mL. For the same molecule, the Tmax ([2]; 100 mg, Study day 1, 100 mg QD + RTV (capsules), Study 204953, median (range)) was 2.25 h, the AUC ([2]; 100 mg, Study day 1, 100 mg QD + RTV (capsules), τ = 24 hours, Study 204953) was 635 ng·h/mL and the concentration at 24 h ([2]; 100 mg, Study day 1, 100 mg QD + RTV (capsules), τ = 24 hours, Study 204953, median (range), read-out: Cτ) was 22.7 ng/mL. It also gave a concentration at 24 h ([2]; 200 mg, 200 mg BID unboosted, read-out: steady‐state C24 mean concentration) of 39 ng/mL, a Cmax [2, 9] of 96.1 ng/mL and a half-life [2, 9] of 19.4 h. It also gave a Tmax ([2]; 200 mg, Study Day 11, 200 mg bid without RTV (capsules), Study 204953, median (range)) of 3.76 h, an AUC ([2]; 200 mg, Study Day 11, 200 mg bid without RTV (capsules), τ = 12 hours, Study 204953) of 742 ng·h/mL and a concentration at 12 h ([2]; 200 mg, Study Day 11, 200 mg bid without RTV (capsules), τ = 12 hours, Study 204953, median (range), read-out: Cτ) of 38.4 ng/mL. For the same molecule, the Cmax ([2]; 200 mg, Study day 1, 200 mg QD + RTV (capsules), Study 204953) was 75 ng/mL, the Tmax ([2]; 200 mg, Study day 1, 200 mg QD + RTV (capsules), Study 204953, median (range)) was 2.25 h and the AUC ([2]; 200 mg, Study day 1, 200 mg QD + RTV (capsules), τ = 24 hours, Study 204953) was 1060 ng·h/mL. For the same molecule, the concentration at 24 h ([2]; 200 mg, Study day 1, 200 mg QD + RTV (capsules), τ = 24 hours, Study 204953, median (range), read-out: Cτ) was 40.1 ng/mL, the Cmax ([2]; 200 mg, Study day 1, 200 mg bid without RTV (capsules), Study 204953) was 48.5 ng/mL and the Tmax ([2]; 200 mg, Study day 1, 200 mg bid without RTV (capsules), Study 204953, median (range)) was 3.74 h. For the same molecule, the AUC ([2]; 200 mg, Study day 1, 200 mg bid without RTV (capsules), τ = 12 hours, Study 204953) was 267 ng·h/mL, the concentration at 12 h ([2]; 200 mg, Study day 1, 200 mg bid without RTV (capsules), τ = 12 hours, Study 204953, median (range), read-out: Cτ) was 20 ng/mL and the Cmax [2, 5] was 25.3 ng/mL. The half-life [2, 5] was 19.8 h, the Tmax ([2]; Study Day 11, 20 mg QD + RTV (PiB), Study 204953, median (range)) was 5.98 h and the AUC ([2]; Study Day 11, 20 mg QD + RTV (PiB), τ = 24 hours, Study 204953) was 449 ng·h/mL. The concentration at 24 h ([2]; Study Day 11, 20 mg QD + RTV (PiB), τ = 24 hours, Study 204953, median (range), read-out: Cτ) was 17 ng/mL, the Cmax [2, 6] was 56.6 ng/mL and the half-life [2, 6] was 20.5 h. The Tmax ([2]; Study Day 11, 50 mg QD + RTV (PiB), Study 204953, median (range)) was 3.75 h, the AUC ([2]; Study Day 11, 50 mg QD + RTV (PiB), τ = 24 hours, Study 204953) was 1090 ng·h/mL and the concentration at 24 h ([2]; Study Day 11, 50 mg QD + RTV (PiB), τ = 24 hours, Study 204953, median (range), read-out: Cτ) was 40.8 ng/mL. The Cmax [2, 7] was 130 ng/mL, the half-life [2, 7] was 17.7 h and the Tmax ([2]; Study Day 11, 100 mg QD + RTV (capsules), Study 204953, median (range)) was 3.25 h. It also gave an AUC ([2]; Study Day 11, 100 mg QD + RTV (capsules), τ = 24 hours, Study 204953) of 2410 ng·h/mL, a concentration at 24 h ([2]; Study Day 11, 100 mg QD + RTV (capsules), τ = 24 hours, Study 204953, median (range), read-out: Cτ) of 89.3 ng/mL and a Cmax [2, 8] of 225 ng/mL. For the same molecule, the half-life [2, 8] was 18 h, the Tmax ([2]; Study Day 11, 200 mg QD + RTV (capsules), Study 204953, median (range)) was 3.25 h and the AUC ([2]; Study Day 11, 200 mg QD + RTV (capsules), τ = 24 hours, Study 204953) was 4010 ng·h/mL. The concentration at 24 h ([2]; Study Day 11, 200 mg QD + RTV (capsules), τ = 24 hours, Study 204953, median (range), read-out: Cτ) was 142 ng/mL, the “reduction of Day 1 AUC without ritonavir predosing” value [2, 10] was about 25% and the “reduction of Day 1 C max without ritonavir predosing” value [2, 10] was about 25%. For the same molecule, the “dose proportionality (C max and AUC)” value [2] was “proportional PK; also recorded: dose proportional” and the “dose proportionality (C max and AUC)” value ([2]; listed as GSK2383232) was “proportional pharmacokinetics”.
